{"source": "ChEMBL document CHEMBL4813944", "about": "(Eur J Med Chem, 2021)", "key": {"SH-SY5Y [1]": {"system": "SH-SY5Y", "assay": "Inhibition of glutamate-induced oxidative stress in human SH-SY5Y cells assessed as superoxide radical formation at 1 uM measured after 4 hrs by DHE staining based fluorescence spectrophotometry (reference value: 100%)", "assay_type": "functional", "set-up": "scale not given: the % may be the effect or the level left"}, "SH-SY5Y [2]": {"system": "SH-SY5Y", "assay": "Inhibition of salsolinol-induced apoptosis in human SH-SY5Y cells assessed as caspase 3/7 activity at 1 uM incubated for 24 hrs using Ac-DEVD-AMC as substrate by fluorescence analysis (reference value: 100%)", "assay_type": "functional", "set-up": "scale not given: the % may be the effect or the level left"}, "SH-SY5Y [3]": {"system": "SH-SY5Y", "assay": "Inhibition of glutamate-induced oxidative stress in human SH-SY5Y cells assessed as superoxide radical formation at 0.1 uM measured after 4 hrs by DHE staining based fluorescence spectrophotometry (reference value: 100%)", "assay_type": "functional", "set-up": "scale not given: the % may be the effect or the level left"}, "SH-SY5Y [4]": {"system": "SH-SY5Y", "assay": "Inhibition of Salsolinol-induced oxidative stress in human SH-SY5Y cells assessed as reduction in superoxide radical formation at 1 uM measured after 24 hrs by DHE staining based fluorescence microscopy", "assay_type": "functional, cell-based"}, "SH-SY5Y [5]": {"system": "SH-SY5Y", "assay": "Inhibition of salsolinol-induced mitochondrial depolarization in human SH-SY5Y cells assessed as mitochondrial membrane potential at 10 uM measured after 24 hrs by JC-1 staining based flow cytometry (reference value: 45.3 +/-2.09%)", "assay_type": "functional"}, "SH-SY5Y [6]": {"system": "SH-SY5Y", "assay": "Inhibition of Salsolinol-induced oxidative stress in human SH-SY5Y cells assessed as superoxide radical formation at 1 uM measured after 24 hrs by DHE staining based fluorescence spectrophotometry (reference value: 100%)", "assay_type": "functional", "set-up": "scale not given: the % may be the effect or the level left"}, "SH-SY5Y [7]": {"system": "SH-SY5Y", "assay": "Inhibition of Salsolinol-induced oxidative stress in human SH-SY5Y cells assessed as superoxide radical formation at 0.1 uM measured after 24 hrs by DHE staining based fluorescence spectrophotometry (reference value: 100%)", "assay_type": "functional", "set-up": "scale not given: the % may be the effect or the level left"}, "[8]": {"assay": "Cytotoxicity against human SH-SY5Y cells assessed as cell viability at 10 uM measured after 24 hrs by calcein-AM staining based fluorescence analysis", "conditions": "read-out: Activity"}, "SH-SY5Y [9]": {"system": "SH-SY5Y", "assay": "Neuroprotective activity against salsolinol-induced neurotoxicity in human SH-SY5Y cells assessed as cell death at 1 uM measured after 24 hrs by PI staining based analysis (reference value: 100%)", "assay_type": "functional"}, "SH-SY5Y [10]": {"system": "SH-SY5Y", "assay": "Neuroprotective activity against glutamate-induced neurotoxicity in human SH-SY5Y cells assessed as cell death at 1 uM measured after 24 hrs by PI staining based assay (reference value: 100%)", "assay_type": "functional"}, "[11]": {"assay": "Cytotoxicity against human SH-SY5Y cells assessed as cell viability at 0.1 uM measured after 24 hrs by calcein-AM staining based fluorescence analysis", "conditions": "read-out: Activity"}, "SH-SY5Y [12]": {"system": "SH-SY5Y", "assay": "Inhibition of salsolinol-induced apoptosis in human SH-SY5Y cells assessed as appearance of necrotic cells at 1 uM measured after 24 hrs by AO/PIstaining based fluorescence microscopy", "assay_type": "functional, cell-based"}, "SH-SY5Y [13]": {"system": "SH-SY5Y", "assay": "Neuroprotective activity against salsolinol-induced neurotoxicity in human SH-SY5Y cells assessed as cell viability at 1 uM measured after 24 hrs by calcein-AM staining based fluorescence analysis (reference value: 70.49 +/-0.51%)", "assay_type": "functional", "conditions": "read-out: Activity"}, "SH-SY5Y [14]": {"system": "SH-SY5Y", "assay": "Neuroprotective activity against salsolinol-induced neurotoxicity in human SH-SY5Y cells assessed as cell viability at 0.1 uM measured after 24 hrs by calcein-AM staining based fluorescence analysis (reference value: 70.49 +/-0.51%)", "assay_type": "functional", "conditions": "read-out: Activity"}, "SH-SY5Y [15]": {"system": "SH-SY5Y", "assay": "Neuroprotective activity against salsolinol-induced neurotoxicity in human SH-SY5Y cells assessed as cell death at 0.1 uM measured after 24 hrs by PI staining based analysis (reference value: 100%)", "assay_type": "functional"}, "SH-SY5Y [16]": {"system": "SH-SY5Y", "assay": "Inhibition of glutamate-induced mitochondrial depolarization in human SH-SY5Y cells assessed as recovery of mitochondrial membrane potential at 0.1 to 1 uM incubated for 1 hr by JC10 dye based fluorescence analysis", "assay_type": "functional, cell-based", "conditions": "dose 0.1-1 µM"}, "SH-SY5Y [17]": {"system": "SH-SY5Y", "assay": "Inhibition of salsolinol-induced apoptosis in human SH-SY5Y cells assessed as caspase 3/7 activity at 0.1 uM incubated for 24 hrs using Ac-DEVD-AMC as substrate by fluorescence analysis (reference value: 100%)", "assay_type": "functional", "set-up": "scale not given: the % may be the effect or the level left"}, "[18]": {"assay": "Inhibition of salsolinol-induced mPTP opening in human SH-SY5Y cells assessed as fold change in fluorescence intensity at 1 uM measured after 24 hrs by calcein AM/CoCl2 based fluorescence microscopic analysis (reference value: 0.49 +/-0.02)", "assay_type": "functional"}, "SH-SY5Y [19]": {"system": "SH-SY5Y", "assay": "Inhibition of salsolinol-induced mitochondrial depolarization in human SH-SY5Y cells assessed as recovery of mitochondrial membrane potential at 0.1 uM measured after 24 hrs by JC-1 staining based flow cytometry", "assay_type": "functional, cell-based"}, "SH-SY5Y [20]": {"system": "SH-SY5Y", "assay": "Inhibition of glutamate-induced apoptosis in human SH-SY5Y cells assessed as reduction in caspase 3/7 activity at 0.1 to 1 uM incubated for 1 hr using Ac-DEVD-AMC as substrate by fluorescence analysis", "assay_type": "functional", "conditions": "dose 0.1-1 µM"}, "[21]": {"assay": "Cytotoxicity against human SH-SY5Y cells assessed as cell viability at 1 uM measured after 24 hrs by calcein-AM staining based fluorescence analysis", "conditions": "read-out: Activity"}, "SH-SY5Y [22]": {"system": "SH-SY5Y", "assay": "Inhibition of glutamate-induced oxidative stress in human SH-SY5Y cells assessed as reduction in superoxide radical formation at 1 uM measured after 4 hrs by DHE staining based fluorescence microscopy", "assay_type": "functional, cell-based"}, "SH-SY5Y [23]": {"system": "SH-SY5Y", "assay": "Inhibition of salsolinol-induced apoptosis in human SH-SY5Y cells assessed as caspase 3/7 activity at 0.05 uM incubated for 24 hrs using Ac-DEVD-AMC as substrate by fluorescence analysis (reference value: 100%)", "assay_type": "functional", "set-up": "scale not given: the % may be the effect or the level left"}, "SH-SY5Y [24]": {"system": "SH-SY5Y", "assay": "Inhibition of glutamate-induced apoptosis in human SH-SY5Y cells assessed as caspase 3/7 activity at 0.5 uM incubated for 1 hr using Ac-DEVD-AMC as substrate by fluorescence analysis (reference value: 100%)", "assay_type": "functional", "set-up": "scale not given: the % may be the effect or the level left"}, "SH-SY5Y [25]": {"system": "SH-SY5Y", "assay": "Inhibition of glutamate-induced apoptosis in human SH-SY5Y cells assessed as caspase 3/7 activity at 0.05 uM incubated for 1 hr using Ac-DEVD-AMC as substrate by fluorescence analysis (reference value: 100%)", "assay_type": "functional", "set-up": "scale not given: the % may be the effect or the level left"}, "SH-SY5Y [26]": {"system": "SH-SY5Y", "assay": "Inhibition of salsolinol-induced apoptosis in human SH-SY5Y cells assessed as caspase 3/7 activity at 0.5 uM incubated for 24 hrs using Ac-DEVD-AMC as substrate by fluorescence analysis (reference value: 100%)", "assay_type": "functional", "set-up": "scale not given: the % may be the effect or the level left"}}, "note": "The source made the active and inactive calls. The calls are words filed in the database; no cut-off is given here.", "data": [{"smiles": "C=C(C(=O)OCc1c[nH]nn1)[C@@H]1CC[C@]2(COC(C)=O)CC[C@]3(C)[C@H](CC[C@@H]4[C@@]5(C)CC[C@H](OC(C)=O)C(C)(C)[C@@H]5CC[C@]43C)[C@@H]12", "values": [{"measurement": "Activity", "setting": "SH-SY5Y [1]", "result": 72.2, "unit": "%"}, {"measurement": "Activity", "setting": "SH-SY5Y [2]", "result": 24.3, "unit": "%"}, {"measurement": "Activity", "setting": "SH-SY5Y [3]", "result": 75.7, "unit": "%"}, {"measurement": "inhibition", "setting": "SH-SY5Y [4]", "result": "Active"}, {"measurement": "Activity", "setting": "SH-SY5Y [5]", "result": "inactive"}, {"measurement": "Activity", "setting": "SH-SY5Y [6]", "result": 81, "unit": "%"}, {"measurement": "Activity", "setting": "SH-SY5Y [7]", "result": 83.7, "unit": "%"}, {"measurement": "viability at 24 h, 10 µM", "setting": "[8]", "result": 30.5, "unit": "%"}, {"measurement": "Activity", "setting": "SH-SY5Y [9]", "result": 59.3, "unit": "%"}, {"measurement": "Activity", "setting": "SH-SY5Y [10]", "result": 85, "unit": "%"}, {"measurement": "viability at 24 h, 0.1 µM", "setting": "[11]", "result": 97.4, "unit": "%"}, {"measurement": "Activity", "setting": "SH-SY5Y [12]", "result": "Active"}, {"measurement": "viability at 1 µM", "setting": "SH-SY5Y [13]", "result": 97.9, "unit": "%"}, {"measurement": "viability at 0.1 µM", "setting": "SH-SY5Y [14]", "result": 81.4, "unit": "%"}, {"measurement": "Activity", "setting": "SH-SY5Y [15]", "result": 62.3, "unit": "%"}, {"measurement": "Activity", "setting": "SH-SY5Y [16]", "result": "inactive"}, {"measurement": "Activity", "setting": "SH-SY5Y [17]", "result": 42.2, "unit": "%"}, {"measurement": "fold change (FC)", "setting": "[18]", "result": 1.14}, {"measurement": "Activity", "setting": "SH-SY5Y [19]", "result": "Active"}, {"measurement": "inhibition (INH)", "setting": "SH-SY5Y [20]", "result": 6, "unit": "%"}, {"measurement": "viability at 24 h, 1 µM", "setting": "[21]", "result": 119, "unit": "%"}, {"measurement": "inhibition", "setting": "SH-SY5Y [22]", "result": "Active"}]}, {"smiles": "CC(=O)N[C@@H](CC(=O)O)C(=O)N[C@@H](CCC(=O)O)C(=O)N[C@H](C(=O)N[C@@H](CC(=O)O)C(=O)O)C(C)C", "values": [{"measurement": "Activity", "setting": "SH-SY5Y [23]", "result": 36.9, "unit": "%"}, {"measurement": "Activity", "setting": "SH-SY5Y [24]", "result": 13.7, "unit": "%"}, {"measurement": "Activity", "setting": "SH-SY5Y [25]", "result": 27.8, "unit": "%"}, {"measurement": "Activity", "setting": "SH-SY5Y [26]", "result": 30.8, "unit": "%"}]}]}
